Data from patent US5747239A, “Synthetic peptides specific for the detection of antibodies to HCV, diagnosis of HCV infection and preventions thereof as vaccines” (United Biomedical, Inc., priority 1994, dated 1998).

Key:
Assay type in all cases: binding, human
antibodies to HCV [1] = assay: Peptide ELISA for relative immunoreactivity, 8 member HCV serum panel (Panel I); details: for % IP: NS-5 peptides (Table 12), pep11 as a standard
Experimental: As an example to illustrate how relative (%) immunoreactivity for HCV synthetic peptides is measured, wells of 96-well plates are coated for 1 hour at 37° C., with each of the following peptides: IIH, V, VIIIE and pep11 at 5 ug/mL at 100 uL per well in 10 mM NaHCO3 buffer, pH 9.5. The peptide coated wells were then incubated with 250 uL of 3% by weight of gelatin in PBS in 37° C. for 1 hour to block non-specificprotein binding sites, followed by three washes with PBS containing 0.05% by volume of TWEEN 20 and then dried. The test specimens containing a panel of eight well-characterized HCV antibody positive patient sera were diluted with PBS containing 20% by volume normal goat serum, 1% by weight gelatin and 0.05% by volume TWEEN 20 at dilutions of 1:20 volume to volume, respectively. 200 uL of the diluted specimens were added to each of the wells and allowed to react for 15 minutes at 37° C.
The wells were then washed six times with 0.05% by volume TWEEN 20 in PBS in order to remove unbound antibodies. Horseradish peroxidase conjugated goat anti-human IgG was used as a second antibody tracer to bind with the HCV antibody-peptide antigen complex formed in positive wells. 100 uL of peroxidase labeled goat anti-human IgG at a dilution of 1:1800 in 1% by volume normal goat serum, 0.05% by volume TWEEN 20 in PBS was added to each well and incubated at 37° C. for another 15 minutes.
The wells were washed six times with 0.05% by volume TWEEN 20 PBS to remove unbound antibody and reacted with 100 uL of the substrate mixture containing 0.04% by weight orthophenylenediamine (OPD) and 0.12% by volume hydrogen peroxide in sodium citrate buffer, pH 5.0.
This substrate mixture was used to detect the peroxidase label by forming a colored product. Reactions were stopped by the addition of 100 uL of 1.0M H2 SO4 and the A492 mm measured. Results of relative immunoreactivity for each of the peptides obtained from this study are shown in Table A using peptide II H as the reference.

antibodies to HCV [2] = assay: Envelope/NS-1 peptide ELISA, anti-HCV positive plasmapheresis donors with elevated ALT (Panel III); details: envelope/NS-1 peptides; Panel III (17 samples); peptide 254B as a standard
Experimental: To select a panel of samples with reactivity to peptides from the envelope/NS-1 region, 97 such samples from anti-HCV positive plasmapheresis donors with elevated ALT levels were tested with peptide 254B. […] 17 samples with the greatest reactivity with peptide 254B were chosen to form a third panel (Panel III) to screen for the immunoreactivity of the other 20 peptides from the envelope/NS-1 region. The individual absorbance values of each of the 17 samples on the four peptides with the greatest reactivity, i.e. 255C (pep7), 254B (pep8), 247B (pep9), and 246D (pep10), are listed in Table 8b.

antibodies to HCV [3] = assay: NS-1 peptide ELISA, early and late HCV infection panels
Experimental: In addition, all sixteen NS-1 peptides were tested on panels of samples representing HCV-antibody positive donors (n=9) in an early stage of infection, namely plasmapheresis donors with the first occurrence of an ALT level >100 i.u./L, and those asymptomatic individuals (n=14) disqualified from blood donation because of a reactive result for anti-HIV or HBc, for whom the anti-HCV result probably represents a past infection.
These select panels were chosen from hundreds of HCV positive sera for their ability to recognize NS-1 antigens. For both groups, peptide designated as 232A (pep2) had the greatest immunoreactivity. Using pep2 as a standard, the relative immunoreactivity of each peptide was calculated (Table 3C).

antibodies to HCV [4] = assay: NS-1 peptide ELISA, Panel II (asymptomatic individuals, mainland China and Taiwan); details: NS-1 peptides; Panel II (CH1-CH7); relative to pep1 (231C)
Experimental: Wells of 96-well plates were coated for 1 hour at 37° C. with each of the 16 peptides (designated as peptides 241A-C, 231A-E, 232A-D, 233C, 234A-C), synthesized according to sequences derived from the NS-1 region (Table 3A), at 5 ug/mL at 100 uL per well in 10 mM NaHCO3 buffer, pH 9.5. Each peptide's immunoreactivity was measured as previously described (see Example 1), using an 8 member serum panel (Panel I).
A panel of serum samples from individuals coming from regions in which hepatitis C is endemic, namely mainland China and Taiwan, were tested for evidence of reactivity to these NS-1 protein derived peptides. Twenty-four samples were chosen from individuals who had no recognizable symptoms of non-A, non-B hepatitis and for whom the peptide based HCV EIA, Format C, as described in Example 11, was nonreactive. Seven of the 24 samples (29%) were reactive against one or more peptides from the NS-1 region, indicative of the presence of long term protective antibodies responsive to this region. This 7 member panel (designated as Panel II, CH1-CH7) was used to further characterize these NS-1 peptides for their immunoreactivity.
The peptide with the greatest reactivity against the serum Panel II again was pep1 (designated 231c in Table 3A). Using this peptide as a standard, the relative immunoreactivity for each of the other 15 peptides from the NS-1 region are calculated in Table 3A.

[5] = capsid peptides, Panel I, relative to VIIIE, coated at 5, 1 and 0.2 μg/mL
[6] = Early HCV Infection panel, n = 9
[7] = Late HCV Infection panel, n = 14

Sequence: VGGVYLLPRRGPRLGVRATRKTSERSQPRGRR [VIIIB]
- % Relative Immunoreactivity (antibodies to HCV [1]; [5]): 48.9%

Sequence: CQVPSPEFFTELDGVRLHRFAPPCKPLLREEVSFRVGLHEYPVGSQLPCEPEPD [311C]
- % IP (antibodies to HCV [1]; Panel I): 16.8%

Sequence: TNDCPNSSIVYEAHDAILHTPGCVPCVREGNVSRC [255A]
- % Relative Immunoreactivity (antibodies to HCV [2]): 9.8%

Sequence: TIFKIRMYVGGVEHRLEAACNWTRGERCDLEDRDRSELS [234C]
- % Relative Immunoreactivity in comparison to Pep2 (232A) (antibodies to HCV [3]; [6]): 12.1%
- % Relative Immunoreactivity in comparison to Pep2 (232A) (antibodies to HCV [3]; [7]): 44.5%
- % IP (antibodies to HCV [4]): 8.8%

Sequence: KEKEKTATNNPGKNKKPRVGRIKNWNREGRKDAYQIRKRR [40 mer, reference compound]
- % Relative Immunoreactivity (antibodies to HCV [1]; Arima clone 1 peptides, relative to peptide VIIIE): 21.1%

Sequence: CRPLTDFDQGWGPISYANGSGPDQRPYCWHYPPKPCGIVPAKSVCGPVYC [231D]
- % Relative Immunoreactivity in comparison to Pep2 (232A) (antibodies to HCV [3]; [6]): 23.3%
- % Relative Immunoreactivity in comparison to Pep2 (232A) (antibodies to HCV [3]; [7]): 43.5%
- % IP (antibodies to HCV [4]): 65.3%

Sequence: LWRVSAEEYVEIRQVGDFHYVIGMTTDNLKCPCQVPSP [312C]
- % IP (antibodies to HCV [1]; Panel I): 40.4%

Sequence: CWVAMTPIVATRDGKLPATQLRRHIDLLVGSATLC [244A]
- % Relative Immunoreactivity (antibodies to HCV [2]): 3.8%

Sequence: CNESLNTGWLAGLIYQHKFNSSGCPERLASC [246B]
- % Relative Immunoreactivity (antibodies to HCV [2]): 19.8%

Sequence: IPKVRRPEGRTWAQPGYPWPLYGNEGCGWAGWLLSPRGSRPSWGPTDPRRRSRNLG [IXD]
- % Relative Immunoreactivity (antibodies to HCV [1]; [5]): 58.9%

Sequence: KQNIQLINTNGSWHINSTALNCNESLNTGWLAGLIYQHKFNSSGCPERLASC [246E]
- % Relative Immunoreactivity (antibodies to HCV [2]): 10.5%

Sequence: RTITTGSPITYSTYGKFLADGGCSGGAYDIIICDECHSTDATSILGIGTVLDQAETAGARLVVLATATPPGSVTVPHPNIEEVALSTTGEIPFYGKAIPLEVIKGGRHLIFCHSKKKCDEL [261F]
- absorbance of the one reactive panel member (antibodies to HCV [1]; Panel I, reactive with only one of eight): 269 mA

Sequence: CGSVFLIGQLFTFSPRRHWTTQGCNCSIYPGHITGHRMAWDMMMNWSPTA [254C]
- % Relative Immunoreactivity (antibodies to HCV [2]): 16.7%

Sequence: LRRLHQWISSECTTPCSGSWLRDIWDWICEVLSDFKTWLKAKLMPQL [314C]
- % IP (antibodies to HCV [1]; Panel I): 14.2%

Sequence: CVREGNVSRCWVAMTPTVATRDGKLPATQLRRHIDLLVGSATLC [244B]
- % Relative Immunoreactivity (antibodies to HCV [2]): 5.8%
